pEC50, pIC50: −log10 of the molar value. Values after ≈ are worked out from the molar mass of the structure shown.
Key:
[1] = Aqueous solubility from DMSO stock, LC-UV; type: physicochemical; details: aqueous buffer, kinetic from dmso stock; buffer pH 2.2, 24 h shaking, 2.5% DMSO
Description: The aqueous solubility of the compounds of the invention is determined by comparing the amount dissolved in buffer to the amount in an acetonitrile/water (1/1) solution. Starting from a 10 mM DMSO stock solution aliquots are diluted with acetonitrile/water (1/1) or buffer, respectively. After 24 h of shaking, the solutions are filtrated and analyzed by LC-UV. The amount dissolved in buffer is compared to the amount in the acetonitrile solution. Solubility is usually being measured from 0.001 to 0.125 mg/mL at a DMSO concentration of 2.5%. If more than 90% of the compound is dissolved in buffer, the value is marked with “>”.

human GPR40 receptor = human GPR40 receptor (Homo sapiens, UniProt O14842); test: IP1 accumulation measurements using the IPOne assay system; type: cell-based; details: 1321N1 cells stably expressing human GPR40; 1 h stimulation at 37° C.
Description: IP1 accumulation measurements using the IPOne assay system—1321N1 cells stably expressing human GPR40 receptor (Euroscreen, Belgium) are seeded 24 h before the assay in white 384-well plates in culture medium containing 10% FCS, 1% Na-Pyruvate and 400 μg/mL G418. IP1 is assayed according to the manufacturer's description (Cisbio Bioassays, France). In brief, the assay is started by substitution of the culture medium by stimulation buffer (Hepes 10 mM, CaCl2 1 mM, MgCl2 0.5 mM, KCl 4.2 mM, NaCl 146 mM, glucose 5.5 mM and LiCl 50 mM, pH 7.4). Cells are stimulated for 1 h at 37° C., 5% CO2 by addition of the compounds that are diluted in stimulation buffer containing LiCl. Assays are stopped by adding HTRF-conjugates (IP1-d2 and Anti-IP1 cryptate Tb) and lysis buffer, provided by the manufacturer. After an incubation time of 1 h at room temperature plates are measured using an EnVision™, Perkin Elmer. The obtained fluorescence ratios at 665/615 […] are then used to calculate the pEC50 values using Assay Explorer 3.3 Software (Accelrys, Inc.) by interpolation using an IP1 reference curve and subsequent sigmoidal curve fitting allowing for a variable hill slope.

[2] = target: T1, cytochrome P450 2C8-isoenzyme (Homo sapiens, UniProt P10632); test: Inhibition of CYP-2C8 (amodiaquine deethylation, human liver microsomes); type: in vitro ADME; details: human liver microsomes 0.05 mg/mL, amodiaquine 1 μM, 37° C.
T1 construct: is assayed at 37° C. with human liver microsomes; from tissue; host or cells: human liver microsomes
T1 sequence (P10632 1-490): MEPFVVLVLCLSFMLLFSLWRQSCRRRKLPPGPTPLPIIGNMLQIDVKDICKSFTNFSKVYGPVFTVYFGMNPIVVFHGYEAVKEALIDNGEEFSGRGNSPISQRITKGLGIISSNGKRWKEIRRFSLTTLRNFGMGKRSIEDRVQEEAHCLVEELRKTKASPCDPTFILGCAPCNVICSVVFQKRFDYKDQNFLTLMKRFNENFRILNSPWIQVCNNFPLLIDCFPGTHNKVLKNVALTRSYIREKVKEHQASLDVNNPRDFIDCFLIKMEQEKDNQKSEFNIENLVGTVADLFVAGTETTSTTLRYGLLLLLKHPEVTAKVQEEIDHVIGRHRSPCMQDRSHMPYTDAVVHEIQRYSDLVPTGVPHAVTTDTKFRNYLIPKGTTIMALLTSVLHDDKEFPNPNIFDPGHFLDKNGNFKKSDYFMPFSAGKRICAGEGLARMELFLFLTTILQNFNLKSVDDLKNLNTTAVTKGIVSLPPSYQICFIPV
Description: All assays are carried out on a robotic system in 96 well plates. The final incubation volume contains TRIS buffer (0.1 M), MgCl2 (5 mM), human liver microsomes (0.05 mg/mL), amodiaquine (1 μM) and the test compound at five different concentrations or no compound (high control) in duplicate (e.g. highest concentration 10-50 μM with subsequent serial 1:4 dilutions). Following a short preincubation period, reactions are started with the cofactor (NADPH, 1 mM) and stopped by cooling the incubation down to 8° C. and subsequently by addition of one volume of acetonitrile. An internal standard solution—the stable isotope d5-desethylamodiaquine—is added after quenching of incubations. Peak area analyte (=metabolite formed) and internal standard is determined by LC-MS/MS. The resulting peak area ratio analyte to internal standard in these incubations is compared to a control activity containing no test compound. Within each of the assay runs, the IC50 of a positive control inhibitor (Montelukast) is determined. Experimental IC50 values are calculated by least square regression according to the following equation: % control activity=(100% control activity/(1+(I/IC50)S))−B with I=inhibitor concentration; S=slope factor; B=background activity (lower plateau of the inhibition curve) If the inhibition of the reaction is already >50% at the lowest concentration of the test compound, the IC50 is assigned “<lowest concentration tested” (usually <0.4 μM). If the inhibition of the reaction is still <50% at the highest concentration of the test compound, the IC50 is assigned “>highest concentration tested” (usually >50 μM).

[3] = target: T2, cytochrome P450 2C9-isoenzyme (Homo sapiens, UniProt P11712); test: Inhibition of CYP-2C9 (diclofenac hydroxylation, human liver microsomes); type: in vitro ADME; details: human liver microsomes 0.1 mg/mL, diclofenac 10 μM, 37° C.
T2 construct: is assayed at 37° C. with human liver microsomes; from tissue; host or cells: human liver microsomes
Description: All assays are carried out on a robotic system in 96 well plates. The final incubation volume contains TRIS buffer (0.1 M), MgCl2 (5 mM), human liver microsomes (0.1 mg/mL), diclofenac (10 μM) and the test compound at five different concentrations or no compound (high control) in duplicate (e.g. highest concentration 10-50 μM with subsequent serial 1:4 dilutions). Following a short preincubation period, reactions are started with the cofactor (NADPH, 1 mM) and stopped by cooling the incubation down to 8° C. and subsequently by addition of one volume of acetonitrile. An internal standard solution—the stable isotope 13C6-hydroxydiclofenac—is added after quenching of incubations. Peak area analyte (=metabolite formed) and internal standard is determined by LC-MS/MS. The resulting peak area ratio analyte to internal standard in these incubations is compared to a control activity containing no test compound. Within each of the assay runs, the IC50 of a positive control inhibitor (sulfaphenazole) is determined. Experimental IC50 values are calculated by least square regression according to the following equation: % control activity=(100% control activity/(1+(I/IC50)S)))−B with I=inhibitor concentration S=slope factor B=background activity (lower plateau of the inhibition curve) If the inhibition of the reaction is already >50% at the lowest concentration of the test compound, the IC50 is assigned “<lowest concentration tested” (usually <0.4 μM). If the inhibition of the reaction is still <50% at the highest concentration of the test compound, the IC50 is assigned “>highest concentration tested” (usually >50 μM).

T2 sequence (P11712 whole entry): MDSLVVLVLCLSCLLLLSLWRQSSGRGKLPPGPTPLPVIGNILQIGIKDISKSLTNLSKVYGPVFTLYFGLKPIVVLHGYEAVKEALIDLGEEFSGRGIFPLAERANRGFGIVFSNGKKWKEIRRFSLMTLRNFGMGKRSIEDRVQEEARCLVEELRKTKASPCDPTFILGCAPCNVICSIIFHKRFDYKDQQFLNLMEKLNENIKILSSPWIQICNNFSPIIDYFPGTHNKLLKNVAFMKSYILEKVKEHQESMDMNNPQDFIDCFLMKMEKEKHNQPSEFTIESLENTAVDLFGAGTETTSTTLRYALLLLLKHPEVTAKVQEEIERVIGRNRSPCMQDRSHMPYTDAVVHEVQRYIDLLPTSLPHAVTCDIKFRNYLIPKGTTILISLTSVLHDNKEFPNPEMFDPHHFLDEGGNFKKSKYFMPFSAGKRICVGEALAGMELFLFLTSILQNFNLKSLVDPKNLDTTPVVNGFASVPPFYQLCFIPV
human GPR40 receptor, sequence (O14842 whole entry): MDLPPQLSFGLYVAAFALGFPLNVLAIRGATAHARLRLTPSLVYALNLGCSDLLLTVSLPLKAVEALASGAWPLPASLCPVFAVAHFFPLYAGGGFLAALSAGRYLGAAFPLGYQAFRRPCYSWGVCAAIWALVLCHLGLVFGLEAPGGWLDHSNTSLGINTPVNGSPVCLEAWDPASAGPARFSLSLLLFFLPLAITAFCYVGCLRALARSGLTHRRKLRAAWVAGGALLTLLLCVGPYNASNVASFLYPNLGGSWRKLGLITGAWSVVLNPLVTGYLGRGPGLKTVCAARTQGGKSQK

`O=C(O)CC1COc2cc(N[C@@H]3CCc4c(-c5ccccc5C(F)(F)F)cccc43)cnc21` (stereo partly drawn) [Example 125, 2-(6-{[(1R)-4-[2-(Trifluoromethyl)phenyl]-2,3-dihydro-1H-inden-1-yl]amino}-2H,3H-furo[3,2-b]pyridin-3-yl)acetic acid] gave a solubility at 24 h [1] of 22 µg/mL (≈ 48.4 µM), a pEC50 (human GPR40 receptor) of 6.16 and a pIC50 [2] of 4.68. For the same compound, the pIC50 [3] was 4.33.

Work on `Cc1cc(C(=O)N(C)C)cc(C)c1-c1cccc2c1CC[C@H]2Nc1cnc2c(c1)OCC2CC(=O)O` (stereo partly drawn) [Example 126, 2-(6-{[(1R)-4-[4-(Dimethylcarbamoyl)-2,6-dimethylphenyl]-2,3-dihydro-1H-inden-1-yl]amino}-2H,3H-furo[3,2-b]pyridin-3-yl)acetic acid] yielded a solubility at 24 h [1] of 79 µg/mL (≈ 163 µM), a pEC50 (human GPR40 receptor) of 5.73 and a pIC50 [2] of 4.43. For the same compound, the pIC50 [3] was less than 4.30.

`Cc1cc(-c2ccc(=O)n(C)c2)cc(C)c1-c1cccc2c1CC[C@H]2Nc1cnc2c(c1)OCC2CC(=O)O` (stereo partly drawn) [Example 121, 2-(6-{[(1R)-4-[2,6-Dimethyl-4-(1-methyl-6-oxo-1,6-dihydropyridin-3-yl)phenyl]-2,3-dihydro-1H-inden-1-yl]amino}-2H,3H-furo[3,2-b]pyridin-3-yl)acetic acid] showed a solubility at 24 h [1] of 51 µg/mL (≈ 97.8 µM), a pEC50 (human GPR40 receptor) of 7.21 and a pIC50 [2] of 4.54. It also gave a pIC50 [3] of less than 4.30.

`Cc1cc(-c2cc(=O)n(C)cn2)cc(C)c1-c1cccc2c1CC[C@H]2Nc1cnc2c(c1)OCC2CC(=O)O` (stereo partly drawn) [Example 133, 2-(6-{[(1R)-4-[2,6-Dimethyl-4-(1-methyl-6-oxo-1,6-dihydropyrimidin-4-yl)phenyl]-2,3-dihydro-1H-inden-1-yl]amino}-2H,3H-furo[3,2-b]pyridin-3-yl)acetic acid] gave a solubility at 24 h [1] of 78 µg/mL (≈ 149 µM), a pEC50 (human GPR40 receptor) of 7.48 and a pIC50 [2] of 4.68. It also gave a pIC50 [3] of less than 4.30.

Compound `Cc1cc(OCC(C)(C)C#N)cc(C)c1-c1cccc2c1CC[C@H]2Nc1cnc2c(c1)OCC2CC(=O)O` (stereo partly drawn) [Example 123, 2-(6-{[(1R)-4-[4-(2-Cyano-2,2-dimethylethoxy)-2,6-dimethylphenyl]-2,3-dihydro-1H-inden-1-yl]amino}-2H,3H-furo[3,2-b]pyridin-3-yl)acetic acid] has a solubility at 24 h [1] of less than 1 µg/mL, a pEC50 (human GPR40 receptor) of 6.82 and a pIC50 [2] of 5.05. The pIC50 [3] was 4.55.

In the case of `Cc1ccc(Cl)c(-c2cccc3c2CC[C@H]3Nc2cnc3c(c2)OCC3CC(=O)O)c1Cl` (stereo partly drawn) [Example 128, 2-(6-{[(1R)-4-(2,6-dichloro-3-methylphenyl)-2,3-dihydro-1H-inden-1-yl]amino}-2H,3H-furo[3,2-b]pyridin-3-yl)acetic acid], the solubility at 24 h [1] was 1 µg/mL (≈ 2.13 µM), the pEC50 (human GPR40 receptor) was 6.90 and the pIC50 [2] was 4.85. The pIC50 [3] was less than 4.30.

`N#Cc1cccc(C#N)c1-c1cccc2c1CC[C@H]2Nc1cnc2c(c1)OCC2CC(=O)O` (stereo partly drawn) [Example 130, 2-(6-{[(1R)-4-(2,6-Dicyanophenyl)-2,3-dihydro-1H-inden-1-yl]amino}-2H,3H-furo[3,2-b]pyridin-3-yl)acetic acid] showed a solubility at 24 h [1] of 84 µg/mL (≈ 192 µM), a pEC50 (human GPR40 receptor) of less than 5.00 and a pIC50 [2] of less than 4.30. For the same compound, the pIC50 [3] was less than 4.30.

In the case of `COc1cc(F)c(-c2cccc3c2CC[C@H]3Nc2cnc3c(c2)OCC3CC(=O)O)c(F)c1` (stereo partly drawn) [Example 127, 2-(6-{[(1R)-4-(2,6-Difluoro-4-methoxyphenyl)-2,3-dihydro-1H-inden-1-yl]amino}-2H,3H-furo[3,2-b]pyridin-3-yl)acetic acid], the solubility at 24 h [1] was 30 µg/mL (≈ 66.3 µM), the pEC50 (human GPR40 receptor) was 5.91 and the pIC50 [2] was 4.57. It also gave a pIC50 [3] of less than 4.30.

With `N#CC1(c2ccccc2-c2cccc3c2CC[C@H]3Nc2cnc3c(c2)OCC3CC(=O)O)CC1` (stereo partly drawn) [Example 131, 2-(6-{[(1R)-4-[2-(1-Cyanocyclopropyl)phenyl]-2,3-dihydro-1H-inden-1-yl]amino}-2H,3H-furo[3,2-b]pyridin-3-yl)acetic acid] the solubility at 24 h [1] was 67 µg/mL (≈ 148 µM), the pEC50 (human GPR40 receptor) was 5.19 and the pIC50 [2] was 4.43. For the same compound, the pIC50 [3] was less than 4.30.

For `Cc1cc(-c2ccn(C)c(=O)c2)cc(C)c1-c1cccc2c1CC[C@H]2Nc1cnc2c(c1)OCC2CC(=O)O` (stereo partly drawn) [Example 120, 2-(6-{[(1R)-4-[2,6-Dimethyl-4-(1-methyl-2-oxo-1,2-dihydropyridin-4-yl)phenyl]-2,3-dihydro-1H-inden-1-yl]amino}-2H,3H-furo[3,2-b]pyridin-3-yl)acetic acid], the solubility at 24 h [1] was 29 µg/mL (≈ 55.6 µM), the pEC50 (human GPR40 receptor) was 7.28 and the pIC50 [2] was 4.92. For the same compound, the pIC50 [3] was less than 4.30.

With `CCc1cccc(CC)c1-c1cccc2c1CC[C@H]2Nc1cnc2c(c1)OCC2CC(=O)O` (stereo partly drawn) [Example 124, 2-(6-{[(1R)-4-(2,6-Diethylphenyl)-2,3-dihydro-1H-inden-1-yl]amino}-2H,3H-furo[3,2-b]pyridin-3-yl)acetic acid] the solubility at 24 h [1] was 6 µg/mL (≈ 13.6 µM), the pEC50 (human GPR40 receptor) was 7.12 and the pIC50 [2] was 5.05. The pIC50 [3] was 4.31.

For `Cc1cc(-c2nnn(CC(C)(C)O)n2)cc(C)c1-c1cccc2c1CC[C@H]2Nc1cnc2c(c1)OCC2CC(=O)O` (stereo partly drawn) [Example 122, 2-(6-{[(1R)-4-{4-[2-(2-Hydroxy-2-methylpropyl)-2H-1,2,3,4-tetrazol-5-yl]-2,6-dimethylphenyl}-2,3-dihydro-1H-inden-1-yl]amino}-2H,3H-furo[3,2-b]pyridin-3-yl)acetic acid], the solubility at 24 h [1] was 45 µg/mL (≈ 81.1 µM), the pEC50 (human GPR40 receptor) was 7.62 and the pIC50 [2] was 4.49. It also gave a pIC50 [3] of less than 4.30.

Work on `Cc1cc(OCCC(C)(C)O)cc(C)c1-c1cccc2c1CC[C@H]2Oc1ccc2c(c1)OC[C@H]2CC(=O)O` [7 (WO 2013/144098), reference compound] yielded a pIC50 [2] of 5.30 and a pIC50 [3] of less than 5.00.

With `Cc1cc(OCCC(C)(C)O)cc(C)c1-c1ccc(F)c2c1CC[C@H]2Nc1cnc2c(c1)OCC2CC(=O)O` (stereo partly drawn) [Example 1, 2-(6-{[(1R)-7-Fluoro-4-[4-(3-hydroxy-3-methylbutoxy)-2,6-dimethylphenyl]-2,3-dihydro-1H-inden-1-yl]amino}-2H,3H-furo[3,2-b]pyridin-3-yl)acetic acid] the pEC50 (human GPR40 receptor) was 7.24, the pIC50 [2] was 4.77 and the pIC50 [3] was less than 4.30.

From US20180354962A1, “[{[2,3-Dihydro-1H-inden-1-yl]amino}-2H,3H-furo[3,2-b]pyridin-3-yl]acetic acids, pharmaceutical compositions and uses thereof” (Boehringer Ingelheim International GmbH, priority 2015, published 2018)
